Laboratory results from PMC4809498, “Artonin E Induces Apoptosis via Mitochondrial Dysregulation in SKOV-3 Ovarian Cancer Cells” (PLoS ONE, 2016).
Converted amounts (≈) assume the structure as drawn.

Legend:
T1074 cells = test: MTT cell viability assay, T1074; format: cell-based, human; settings: Homo sapiens
Method: (§1) Metastatic ovarian adenocarcinoma (SKOV-3) and normal Chinese hamster ovary (CHO) cell lines were originally obtained from the American Type Culture Collection (ATCC; Manassas, VA). SKOV-3 cells were cultured in McCoy’s 5A medium and CHO cells were cultured in F12K medium. A human periodontal ligament fibroblast cell line was purchased from Lonza, USA and maintained in stroma cell basal medium. T1074 (normal immortalized human ovarian surface epithelial cell line) was originally purchased from Applied Biological Materials (abm®) Canada and cultured in Prigrow 1 medium.
(§2) The inhibitory effects of artonin E and two positive controls paclitaxel and carboplatin were examined by MTT assay. Cells at a density of 5×10^3cells/well were placed in a 96-well plate and left for 24 h to attach. The attached cells were exposed to artonin E, paclitaxel, and carboplatin at different concentrations and incubated for 24, 48, and 72 h. Subsequently, 20 μL of 5 mg/mL MTT solution was added after drug treatment and the resulting mixture was incubated for 4 h to form purple formazan. Afterward, 100 μL of dimethyl sulfoxide (DMSO) was transferred into each well to dissolve the purple formazan, and results were measured using a microplate reader (Tecan Infinite M 200 PRO, Männedorf, Switzerland) at an absorbance of 570 nm. The half-maximal concentrations that caused cell growth inhibition (IC50 values) were obtained from the MTT viability growth curve.

CHO cells = test: MTT cell viability assay, CHO; format: cell-based, Chinese hamster; settings: Cricetulus griseus, 24 h treatment
Method: as §1
as §2, with “The half-maximal concentrations that caused cell growth inhibition (IC50 values) were obtained from the MTT viability growth curve.” left out

SKOV-3 cells [1] = test: AO-PI double staining; format: cell-based, human; settings: SKOV-3, 8 μg/mL, 24, 48, 72 h
Method: The effect of artonin E in inducing cell death in SKOV-3 cells was determined using acridine orange (AO) and propidium iodide (PI) double staining. SKOV-3 cells were plated at 5×10^5cells in a T75cm^2 flask and incubated overnight to allow attachment. The cells were then exposed to 8 μg/mL of artonin E for 24, 48, and 72 h. After incubation, the treated cells were washed with PBS, and then trypsinized and centrifuged at 1,500 rpm for 5 min. The cells were then resuspended in cold PBS and centrifuged twice to obtain fresh clean pellets. The fresh pellets were mixed with an equal volume of fluorescent dye staining solution (1:1), comprising 10μg/mL AO and 10 μg/mL PI (dissolved in PBS). The freshly stained cell suspension was dropped onto a glass slide and observed under a UV–fluorescence microscope (Leica attached with Q-Flora Software) within 30 min, prior to fading of the fluorescence.

SKOV-3 cells [2] = test: Annexin V-FITC/PI flow cytometry; format: cell-based, human; settings: SKOV-3, 8 μg/mL
Method: An Annexin V assay was performed using a BD Pharmingen^TM Annexin V-FITC Apoptosis Detection Kit (ApoAlert Annexin V, Clontech, California, USA). The cells were placed in a 6-well plate and left overnight to attach. Cells were then treated with 8 μg/mL of artonin E for 24, 48, and 72h. The treated cells were trypsinized and centrifuged at 1,500 rpm for 10 min to remove residual media. Subsequently, 1X binding buffer was added to rinse the fresh pellets before their resuspension in 200 μL of binding buffer. The cells were then mixed with 5 μL of Annexin V and 10 μL of PI and incubated for 15 min in the dark at room temperature. The prepared cells were immediately analyzed using flow cytometric analysis (FACS Canto 11 Becton-Dickson). Then, 300 μL of binding buffer was added to each sample to adjust the reaction volume to at least 500 μL for the flow cytometric analysis. The cells treated with DMSO (0.1%, v/v) were used as control.

caspase-3 [3] = test: Colorimetric caspase-3 activation assay; format: cell-based, human; settings: SKOV-3, 8 μg/mL, 48 and 72 h treatment
Method: Calorimetric assay of the activation of caspases-3, -8, and -9 was conducted using R & D system kit, USA. Briefly, in a T75cm^2 flask 90% confluent SKOV-3 cells were induced with artonin E for 24, 48, and 72 h. The induced cells were trypsinized and centrifuged at 1,800 rpm for 10 min. The fresh pellets were washed with cold PBS and immediately lysed with protein lysis buffer. The cell lysate was then kept on ice for 10 min, centrifuged at 10,000 g for 15 min, and transferred into a new tube. The fresh cell lysate (50 μL), which contained 100–200 μg of protein, was added into a 96-well plate in triplicate. Fifty microliters of reaction buffer and 5 μL of caspase were then transferred into each designated well before incubating the plate in a CO2 incubator at 37°C for 2 h. A microplate reader (Tecan Infinite M 200 PRO, Männedorf, Switzerland) was used for analysis at a wavelength of 405 nm.

caspase-3 [4] = test: Western blot, caspase-3; format: cell-based, human; settings: SKOV-3, 8 μg/mL, as early as 24 h
Method: (§3) SKOV-3 cells were plated in a 75cm^2 culture flask and exposed to artonin E for 24, 48, and 72 h. Lysis buffer (50 mM Tris–HCl, pH 8.0; 120 mM NaCl, 0.5% NP-40; and 1 mM PMSF) was used to extract the total protein. Protein concentration was determined using a BCA protein assay reagent kit (Bio-Rad, USA). Equal amounts of protein (40 μg) extract were subjected to SDS-PAGE and electroblotted onto a polyvinylidenedifluoride membrane (Bio-Rad). Blots were then blocked with 5% non-fat milk in TBS-Tween buffer 7 (0.12 M Tris-base, 1.5 M NaCl, and 0.1% Tween 20) for 1 h at room temperature. After incubating with the appropriate primary antibody overnight at 4°C, the blots were washed and then incubated with horseradish peroxidase conjugated secondary antibody for 1 h at room temperature. The protein bands were detected using pico or femto chemiluminescence (ECL system) and visualized using a UV gel documentation system. The subsequent primary antibodies, which include those for β-actin (1:10,000), Bax (1:10,000), Bcl-2 (1:10,000), HSP-70 (1:10,000), survivin (1:10,000),caspase -3 (1:10,000), caspase -8 (1:10,000), caspase -9 (1;10,000) and cytochrome c (1:200) were purchased from Abcam, Cambridge, United Kingdom.

caspase-8 = test: Western blot, caspase-8; format: cell-based, human; settings: SKOV-3, 8 μg/mL, after 48 and 72 h
Method: as §3

Bax = test: Western blot, Bax; format: cell-based, human; settings: SKOV-3, 8 μg/mL, time-dependent
Method: as §3

[5] = parameters: method as in PMID 17855020; settings: cited from earlier work

- activation of caspase-3 (caspase-3 [3]): significantly (p<0.05)elevated
SMILES: CC(C)=CCc1c(-c2cc(O)c(O)cc2O)oc2c3c(cc(O)c2c1=O)OC(C)(C)C=C3 [Artonin E, artonin E]
- IC50 (T1074 cells; 24 h treatment): 44.8 ± 0.76 µg/mL (≈ 103 µM)
- IC50 (T1074 cells; 48 h treatment): 37.5 ± 0.53 µg/mL (≈ 85.9 µM)
- IC50 (T1074 cells; 72 h treatment): 32.5 ± 0.5 µg/mL (≈ 74.5 µM)
- IC50 (CHO cells): 57.6 ± 2 µg/mL (≈ 132 µM)
- induction of apoptosis (AO-PI scoring) vs untreated cells (SKOV-3 cells [1]): statistically significant (p<0.05) difference
- cells at the early stage of apoptosis (SKOV-3 cells [2]; 24 h post treatment): more than 40%
- cells at the late stage of apoptosis (SKOV-3 cells [2]; 48 h post treatment): more than 40%
- protein expression level of caspase-3 (caspase-3 [4]): significantly (p<0.05) up-regulated
- protein expression level of caspase-8 (caspase-8): up-regulated
- expression of Bax (Bax): upregulates
- radical scavenging against the DPPH radical [5]: strong radical scavenging properties
